The values below come from article PMC8490515, “Neuromedin B receptor stimulation of Cav3.2 T-type Ca^2+ channels in primary sensory neurons mediates peripheral pain hypersensitivity” (Theranostics, 2021).

The test system of assay [1] is nociception and neurogenic inflammation. The following applies: application of Nmb; ref [4], [5]; cited from earlier work. The source says:
It has been well established that T-type channels promote Ca^2+ entry that disrupts the resting membrane potential and can modulate neuronal activity in the peripheral and central nervous systems, thus improving transmission efficiency. In the peripheral sensory neurons this low activation threshold property of T-type channels typically results in the amplification of sensory signals, increased afferent sensory transmission and, in particular, increased pain perception, [74].

For a further assay, the system named is nociceptive reflex. Particulars: intrathecal injection; ref [4], [5]; cited from earlier work. The source says:
Neuromedin B (Nmb) is a highly conserved and non-glycosylated polypeptide in mammals initially purified from porcine spinal cord that serves as a neuromodulator by paracrine or autocrine mechanisms. Nmb receptor (NmbR), which is located predominantly (but not exclusively) in peripheral tissues and organs and the central nervous system in mammals, has been identified as an endogenous receptor for Nmb. Acting through this receptor, Nmb mediates several behavioural effects and performs various biological functions, including regulating food intake, smooth muscle contraction, body temperat ...

Assay [2] relates to high-voltage activated (HVA) Ca^2+ channels, L-type. The assay is described as follows: HVA / L-type Ca2+ channel currents in TG neurons. The format is cell-based, mouse. How it is done: (§1) All the procedures performed in this study were carried out in accordance with NIH guidelines and were approved by the Institutional Animal Care and Use Committee of Soochow University. TG neurons were dissociated as previously described, [23]. Briefly, TGs were harvested from 8- to 10-week-old ICR mice of either sex, cut into small pieces and treated with 2 mg/mL collagenase D (Roche) for 20 min followed by 1.5 mg/mL trypsin (Sigma) at 37 °C for 15 min. Cells were dissociated via gentle trituration with fire-polished sterilized Pasteur pipettes and centrifuged through a 15% BSA gradient to remove debris and nonneuronal cells. TG neurons were resuspended in neurobasal A (Thermo Fisher) supplemented with B27 (Thermo Fisher) and transferred onto Matrigel-coated coverslips. Patch clamp recordings were conducted 2 to 6 h after plating. In shRNA-treated knockdown experiments, TG cells were replated onto coverslips 48 h after infection.
(§2) Standard whole-cell recordings were made at room temperature (22-23 °C) as described previously, [25]. Recording electrodes were pulled from borosilicate glass microcapillary tubes (Sutter Instruments) and had resistances from 3 to 5 MΩ when filled with internal solution. Recordings were obtained using a MultiClamp 700B amplifier (Axon Instruments). […]

The subject of assay [3] is transient outward K^+ channel (IA). Put plainly: Transient outward A-type K+ currents (IA) in TG neurons. Particulars: 100 nM. The assay is classed as cell-based, mouse. How it is done: as §1, §2
The next assay relates to Cav3.2. The assay is described as follows: Western blot of Cav3.2 protein in TG cells / TGs. The assay is classed as cell-based, mouse. The following applies: 100 nM Nmb. (In general: A western blot detects proteins with antibodies after separation by electrophoresis.)

For Neuromedin B [Nmb], in assay [1], the “pro-nociceptive effects of Nmb” value is given as “can induce pro-nociceptive effects”. Moreover, the nociceptive reflex responses entry in the assay on nociceptive reflex is given as “elicits nociceptive reflex responses”. Further, the “decrease of L-type channel currents” value in assay [2] (100 nM) came to 19.6 ± 2.2%. Besides, the “decrease of remaining HVA Ca2+ channel currents” value in assay [2] (100 nM Nmb with 5 μM nifedipine) is recorded as 1.3 ± 0.6%. Also, the “decrease of peak amplitude of IA” value in assay [3] is on record as 22.3 ± 3.9%. Besides, the “Cav3.2 protein expression in TG cells” value in the assay with Cav3.2 is recorded as “did not affect the Cav3.2 protein expression”.
